In paper PMC7402526, “An in vitro quantitative systems pharmacology approach for deconvolving mechanisms of drug-induced, multilineage cytopenias” (PLoS Computational Biology, 2020):

Assays:
[1] = tested on: total viable cells (totalViableCells); assay: MLTA, total live cells concentration-response; format: cell-based; conditions: Homo sapiens, 144 h, 6 days, normalized to vehicle control, read-out: total_live normalized cell count
How it was run: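 Freeze-thawed primary human bone marrow CD34+ cells in SFEM II with cytokine cocktail, drug added day 0, 6 days at 37°C, 5% CO2. Live/dead counts by 17-parameter flow cytometry with DAPI exclusion, bead-normalized, volume-corrected to cells/mL. Normalized per donor to mean of six vehicle wells; 2–7 donors pooled.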

[2] = tested on: granulocyte-macrophage progenitor (GMPs); assay: MLTA, GMPs: concentration-response and QSP model fit; format: cell-based, human; conditions: Homo sapiens, 144 h, 6 days, normalized to vehicle control, read-out: GMPs normalized cell count
How it was run: (§1)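 Six-day flow cytometry counts, bead-normalized and expressed relative to the mean of six vehicle wells, underlie each value. Cells were primary human bone marrow CD34+ cells cultured in SFEM II with cytokines promoting multi-lineage differentiation and self-renewal.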

[3] = tested on: human bone marrow-derived CD34+ cells differentiated into multiple hematopoietic lineages; assay: MLTA, overall effects across hematopoietic lineages; format: cell-based; conditions: QSP model fit; EmaxT > 1.0 = cell-killing
Procedure: A custom optimized cytokine cocktail was developed using commercially available cytokines (Peprotech, New Jersey) to facilitate simultaneous multi-lineage differentiation and self-renewal of freeze-thawed primary human bone marrow-derived CD34+ cells in SFEM II media (cells and media from StemCell Technologies, Vancouver). Cultures were carried out in ultra-low attachment 96-well plates (Corning, New York) with test article added on day 0 and cultured at 37°C, 85% relative humidity, and 5% CO2 for six days before interrogating drug impact via 17-parameter flow cytometry.
The flow cytometry panel used to define hematopoietic subsets was composed of CD34-PECy7, CD90-PECY5, CD38-AF488, CD371-PE, CD45Ra-BV421, CD14-BV605, CD42b-AF647, CD10-PEDazzle594, CD235a-PerCPCy5.5 (BioLegend, California), CD15-BUV395, CD41a-APCH7, CD71-BV786 (BD Biosciences, California), and DAPI for dead cell exclusion (ThermoFisher, California). In short, Day 6 cells were harvested, FcR-blocked (FcR binding inhibitor, ThermoFisher), surface-stained, then analyzed in a buffer containing TruCount Control Beads using a BD LSR Fortessa SORP fitted with a high-throughput sampler (BD Biosciences, California). Data was analyzed in Diva 6.0.2 and exported to CSV where after all cell data was transformed to cell per mL then normalized on a per-donor basis to untreated control wells to determine drug impact.
Donor material was collected and cultured as described above. The number of replicate donor samples per drug ranged from 2–7 and varied per drug (S1 Table). Drug treatment was added at time 0 and cells were maintained in culture for 6 days. Concentrations tested for each drug compound are contained in S1 Table. Concentrations were selected to span a range that is clinically useful. Following treatment, cell populations were measured using flow cytometry. We extracted cell counts from flow cytometry data, normalized to bead counts, and corrected for well volume.
Each well was normalized to the average of six vehicle control wells. For drugs that were tested across multiple runs of the assay, vehicle-normalized donor data were pooled, and we used the average of these pooled data for further modeling. Normalized data used as model inputs are included in S1 Table.
We implemented drug effects using an Emax model for the drug’s effect on each cell type. The 13 maximum effect parameters (EmaxT,C) are unitless and can vary between 0 and 2 and where a subscript, C, represents one of the previously described 13 cell types. We adapted a traditional Emax model using the equations below. We interpreted EmaxT values less than or equal to one as anti-proliferative, and EmaxT values greater than one as indicating a cell-killing mechanism in addition to anti-proliferation. The relationships for these effects are included in the model using the following equations. Eq 2 describes the drug anti-proliferative effect in the net proliferation rate for a given cell type. Eq 3 describes the cell-killing EmaxCK effect.

[4] = tested on: neutrophils (neutrophil-lin); assay: MLTA, Neut: concentration-response and QSP model fit; format: cell-based, human; conditions: Homo sapiens, Neutrophil, 144 h
How it was run: as §1

[5] = tested on: lymphocyte progenitors (LymP); assay: MLTA, LymP: concentration-response and QSP model fit; format: cell-based, human; conditions: Homo sapiens, Lymphocyte, 144 h
How it was run: as §1

granulocytes (Gran-lin) = assay: MLTA, Gran: concentration-response and QSP model fit; format: cell-based, human
How it was run: (§2)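 Freeze-thawed primary human bone marrow CD34+ cells were cultured 6 days in SFEM II with a cytokine cocktail, drug added on day 0. Subsets were counted by 17-parameter flow cytometry with TruCount beads and normalized to vehicle wells. An Emax QSP model (Emax 0–2, L1 regularization) was fitted to these counts.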

[6] = tested on: granulocyte progenitor (Gran-lin prog); assay: MLTA, GranP: concentration-response and QSP model fit; format: cell-based, human; conditions: Homo sapiens, 144 h
How it was run: as §2

MK cells (MK-lin) = assay: MLTA, MK: concentration-response and QSP model fit; format: cell-based, human; conditions: Homo sapiens, 144 h
How it was run: as §1

[7] = QSP model fit of 6-day MLTA data

CC(=O)O[C@@]12CO[C@@H]1C[C@H](O)[C@@]1(C)C(=O)[C@H](O)C3=C(C)[C@@H](OC(=O)[C@H](O)[C@@H](NC(=O)OC(C)(C)C)c4ccccc4)C[C@@](O)([C@@H](OC(=O)c4ccccc4)[C@H]21)C3(C)C [docetaxel]
viability at 0.0002 µM ([1]; dose 0.2 nM): 100% | viability at 0.001 µM ([1]; dose 1 nM): 108% | viability at 0.005 µM ([1]; dose 5 nM): 4.66% | viability at 0.025 µM ([1]; dose 25 nM): 0.311% | viability at 0.1 µM ([1]; dose 100 nM): 0.197% | viability at 0.5 µM ([1]; dose 500 nM): 0.378% | viability at 2.5 µM ([1]; dose 2500 nM): 0.283% | activity at 0.0002 µM ([2]; dose 0.2 nM): 103% | activity at 0.001 µM ([2]; dose 1 nM): 126% | activity at 0.005 µM ([2]; dose 5 nM): 15.2% | activity at 0.025 µM ([2]; dose 25 nM): 0.367% | activity at 0.1 µM ([2]; dose 100 nM): 0.162% | activity at 0.5 µM ([2]; dose 500 nM): 0.693% | activity at 2.5 µM ([2]; dose 2500 nM): 0.207% | EmaxT effects across cell types (overall statement) [3]: > 1.0 | EC50 [4, 7]: 13.7 nM | activity at 0.0002 µM ([4]; dose 0.2 nM, 6 days, normalized to vehicle control, read-out: Neut normalized cell count): 90.8% | activity at 0.001 µM ([4]; dose 1 nM, 6 days, normalized to vehicle control, read-out: Neut normalized cell count): 99.6% | activity at 0.005 µM ([4]; dose 5 nM, 6 days, normalized to vehicle control, read-out: Neut normalized cell count): 0.23% | activity at 0.025 µM ([4]; dose 25 nM, 6 days, normalized to vehicle control, read-out: Neut normalized cell count): 0.177% | activity at 0.1 µM ([4]; dose 100 nM, 6 days, normalized to vehicle control, read-out: Neut normalized cell count): 0.139% | activity at 0.5 µM ([4]; dose 500 nM, 6 days, normalized to vehicle control, read-out: Neut normalized cell count): 0.0727% | activity at 2.5 µM ([4]; dose 2500 nM, 6 days, normalized to vehicle control, read-out: Neut normalized cell count): 0% | Emax ([4]; parameter from QSP model fitting, read-out: Emax_drug_Neut): 23.2% | activity at 0.0002 µM ([5]; dose 0.2 nM, 6 days, normalized to vehicle control, read-out: LymP normalized cell count): 96.4% | activity at 0.001 µM ([5]; dose 1 nM, 6 days, normalized to vehicle control, read-out: LymP normalized cell count): 131% | activity at 0.005 µM ([5]; dose 5 nM, 6 days, normalized to vehicle control, read-out: LymP normalized cell count): 24.3% | activity at 0.025 µM ([5]; dose 25 nM, 6 days, normalized to vehicle control, read-out: LymP normalized cell count): 6.02% | activity at 0.1 µM ([5]; dose 100 nM, 6 days, normalized to vehicle control, read-out: LymP normalized cell count): 2.7% | activity at 0.5 µM ([5]; dose 500 nM, 6 days, normalized to vehicle control, read-out: LymP normalized cell count): 7.71% | activity at 2.5 µM ([5]; dose 2500 nM, 6 days, normalized to vehicle control, read-out: LymP normalized cell count): 6.19% | Emax ([5]; parameter from QSP model fitting, read-out: Emax_drug_LymP): 0.16% | EC50 (granulocytes (Gran-lin); Homo sapiens, 144 h, QSP model fit of 6-day MLTA data): 7.91 nM | activity at 0.0002 µM (granulocytes (Gran-lin); Homo sapiens, 144 h, dose 0.2 nM, 6 days, normalized to vehicle control, read-out: Gran normalized cell count): 99.7% | activity at 0.001 µM (granulocytes (Gran-lin); Homo sapiens, 144 h, dose 1 nM, 6 days, normalized to vehicle control, read-out: Gran normalized cell count): 112% | activity at 0.005 µM (granulocytes (Gran-lin); Homo sapiens, 144 h, dose 5 nM, 6 days, normalized to vehicle control, read-out: Gran normalized cell count): 2.09% | activity at 0.025 µM (granulocytes (Gran-lin); Homo sapiens, 144 h, dose 25 nM, 6 days, normalized to vehicle control, read-out: Gran normalized cell count): 0.0343% | activity at 0.1 µM (granulocytes (Gran-lin); Homo sapiens, 144 h, dose 100 nM, 6 days, normalized to vehicle control, read-out: Gran normalized cell count): 0.0437% | activity at 0.5 µM (granulocytes (Gran-lin); Homo sapiens, 144 h, dose 500 nM, 6 days, normalized to vehicle control, read-out: Gran normalized cell count): 0.0563% | activity at 2.5 µM (granulocytes (Gran-lin); Homo sapiens, 144 h, dose 2500 nM, 6 days, normalized to vehicle control, read-out: Gran normalized cell count): 0.0425% | Emax (granulocytes (Gran-lin); Homo sapiens, 144 h, parameter from QSP model fitting, read-out: Emax_drug_Gran): 276% | EmaxCK,Gran (granulocytes (Gran-lin); cell-killing component, max(0, EmaxT-1)): 1.762 day⁻¹ | activity at 0.0002 µM ([6]; dose 0.2 nM, 6 days, normalized to vehicle control, read-out: GranPs normalized cell count): 110% | activity at 0.001 µM ([6]; dose 1 nM, 6 days, normalized to vehicle control, read-out: GranPs normalized cell count): 110% | activity at 0.005 µM ([6]; dose 5 nM, 6 days, normalized to vehicle control, read-out: GranPs normalized cell count): 4.64% | activity at 0.025 µM ([6]; dose 25 nM, 6 days, normalized to vehicle control, read-out: GranPs normalized cell count): 0% | activity at 0.1 µM ([6]; dose 100 nM, 6 days, normalized to vehicle control, read-out: GranPs normalized cell count): 0.0204% | activity at 0.5 µM ([6]; dose 500 nM, 6 days, normalized to vehicle control, read-out: GranPs normalized cell count): 0.0147% | activity at 2.5 µM ([6]; dose 2500 nM, 6 days, normalized to vehicle control, read-out: GranPs normalized cell count): 0.0152% | Emax ([6]; parameter from QSP model fitting, read-out: Emax_drug_GranP): 0.04% | EC50 (MK cells (MK-lin); [7]): 7.79 nM | activity at 0.0002 µM (MK cells (MK-lin); dose 0.2 nM, 6 days, normalized to vehicle control, read-out: MK normalized cell count): 94.7% | activity at 0.001 µM (MK cells (MK-lin); dose 1 nM, 6 days, normalized to vehicle control, read-out: MK normalized cell count): 109% | activity at 0.005 µM (MK cells (MK-lin); dose 5 nM, 6 days, normalized to vehicle control, read-out: MK normalized cell count): 14.4% | activity at 0.025 µM (MK cells (MK-lin); dose 25 nM, 6 days, normalized to vehicle control, read-out: MK normalized cell count): 1.1% | activity at 0.1 µM (MK cells (MK-lin); dose 100 nM, 6 days, normalized to vehicle control, read-out: MK normalized cell count): 0.719% | activity at 0.5 µM (MK cells (MK-lin); dose 500 nM, 6 days, normalized to vehicle control, read-out: MK normalized cell count): 0.951% | activity at 2.5 µM (MK cells (MK-lin); dose 2500 nM, 6 days, normalized to vehicle control, read-out: MK normalized cell count): 1.05% | Emax (MK cells (MK-lin); parameter from QSP model fitting, read-out: Emax_drug_MK): 12.6%
